The results in this text go back to patent US8623889B2, “Substituted 6,6-fused nitrogenous heterocyclic compounds and uses thereof” (Genentech, Inc., priority 2010, dated 2014).

For one assay, the system named is HL-60 cells. The assay is described as follows: HL-60 cell proliferation assay (CellTiter-Glo). Conditions: 4 days incubation. The format is cell-based. The text has this:
HL-60 cells are a Philadelphia Chromosome Negative (Ph-) cell line that serve as a control for the K-562 proliferation assay. Compounds that exert their activity by inhibition of Abl kinase should not inhibit proliferation of HL-60 cells unless such activity is due to off-target activity. This assay determines the number of viable cells in a culture by quantification of ATP. Promega's CellTiter-Glo® Luminescent Cell Viability Assay (CTG) is the reagent used for this determination. The assay is homogenous. Addition of the CTG reagent results in cell lysis and generation of a luminescent signal through the luciferase reaction. The luminescent signal is proportional to the amount of ATP present. For compounds that interfere with cell division and/or have effects on cell size, the readout is not necessarily proportional to cell number/viability. […] Cytostatic: Luminescence counts should be equivalent to counts obtained from a Day 0 read; and Cytotoxic: Luminescence counts should be equivalent to background. • Seed cells at 20000 cells/well in 20 ul cell plating media into a 384 well cell plate. […] Incubate in humidified CO2 incubator • Day 4a: Add 40 uL of Cell Titer-Glo solution • Day 4b: Incubate CTG reaction • Day 4c: Read luminescence

The subject of another assay is K-562 cells. The assay is described as follows: K-562 cell proliferation assay (CellTiter-Glo). The conditions noted are these: Homo sapiens, K562, 96 h; expected value of assay standard; 4 days incubation; read-out: EC50 to inhibit K-562 cell growth. The format is cell-based. The text has this: The luminescent signal is proportional to the amount of ATP present.
Background: ATP-based viability assays read luminescence as a measure of living cells.

Consider `CS(=O)(=O)O.Cc1ccc(NC(=O)c2ccc(CN3CCN(C)CC3)cc2)cc1Nc1nccc(-c2cccnc2)n1` [CAS NO 220127-57-1], for which the “EC50 to inhibit HL-60 cell growth (in words)” value in the assay with HL-60 cells (expected result of assay standard) is reported as “Inactive”.
By EC50 is commonly meant the concentration that produces a half-maximal response. `COC(=O)Nc1nc2ccc(C(=O)c3cccs3)cc2[nH]1` [Nocodazole]: the concentration giving a half-maximal response (EC50) in the assay on HL-60 cells (Homo sapiens, HL-60, 96 h, expected value of assay standard, read-out: EC50 to inhibit HL-60 cell growth) was ~40 nM; in the assay with K-562 cells, ~40 nM.
